Results: patent US10080751B2, “Systems and methods for treating bacterial infection” (priority 2016, dated 2018)
Converted amounts (≈) assume the structure as drawn. Where two headings read alike, the source gives them in different places.

Legend:
H. influenzae = test: MIC with/without bovine pulmonary surfactant, H. influenzae; type: cell-based, Haemophilus influenzae; details: for MIC: Haemophilus influenzae
Protocol: (§1) Clinical isolates were identified by the submitting laboratories and confirmed by JMI Laboratories using standard bacteriologic algorithms and methodologies, including Matrix-Assisted Laser Desorption Ionization-Time Of Flight Mass Spectrometry (MALDI-TOF MS). When necessary, MALDI-TOF MS was performed using the Bruker Daltonics MALDI Biotyper (Billerica, Mass., USA), following manufacturer's instructions. Isolates selected were bacterial species commonly associated with pneumonia. […] 2.2 Susceptibility testing
(§2) Antibacterial susceptibility testing was measured by JMI Labs (North Liberty, Iowa, USA). […] These clinical isolates were collected from US (n=4), Mexico (n=2), and Italy (n=1). Susceptibility testing was performed by broth microdilution in accordance with the Clinical and Laboratory and Standards Institute (CLSI) guidelines M07-A10 (2015) and the standard operating procedures at JMI laboratories. Minimum inhibitory concentrations (MICs) were based on CLSI criteria (2015). There are no published breakpoints for iclaprim. E. coli, K. pneumoniae, M. catarrhalis, E. faecalis, and S. aureus were tested in cation-adjusted Mueller-Hinton broth (CA-MHB). S. pneumoniae were tested in CA-MHB supplemented with 2.5-5% lysed horse blood, and H. influenza were tested in Haemophilus test medium. Quality control and interpretation of results were performed in accordance with CLSI M100-S26 (2016) methods. QC ranges for iclaprim were those approved by CLSI and published in M100-S26 (2016). Iclaprim and comparator antibiotic MIC results were within the CLSI published ranges against E. coli ATCC 25922, E. faecalis ATCC 29212, E. faecalis ATCC 33186, H. influenzae ATCC 49247, K. pneumoniae ATCC 700603 (ESBL phenotype), S. aureus ATCC 29213, and S. pneumoniae ATCC 49619. Isolates were tested with MIC panels (ThermoFisher Scientific, Cleveland, Ohio, USA) of comparator antibiotics (daptomycin and levofloxacin).
(§3) Because bovine pulmonary surfactant can introduce cloudiness to the MIC testing media, antimicrobial growth inhibition was also evaluated using the colorimetric metabolic indicator resazurin (Camlab Ltd., Cambridge, UK). […] S. pneumoniae panels were omitted from resazurin analysis because the color change was obscured by the lysed horse blood present in the test medium. Growth inhibition was then evaluated as a visible color change from blue (no growth) to pink (robust growth) and recorded as a MICRZ value.
(§4) The MICs of iclaprim, levofloxacin, and daptomycin were determined against Gram-positive and Gram-negative isolates.
(§5) A new vial of bovine pulmonary surfactant (BPS; Survanta®; Abbott Laboratories, Columbus, Ohio) was utilized for each independent experiment. Each vial was mixed thoroughly and a 100 μL aliquot was spread on an agar plate, which was incubated overnight to confirm sterility. […] The concentration of surfactant was expressed in terms of percent volume of Survanta® suspension, which consisted of phospholipid (25 mg/mL) and surfactant proteins (<1 mg/mL) in 0.9% sodium chloride solution (Goerke, 1998). MICs of daptomycin were determined in CAMHB with the Ca^2+ content adjusted to 50 mg/L.

K. pneumoniae = test: MIC with/without bovine pulmonary surfactant, K. pneumoniae; type: cell-based, Klebsiella pneumoniae; details: for MIC: Klebsiella pneumoniae
Protocol: as §1, §2, §3, §4, §5

M. catarrhalis = test: MIC with/without bovine pulmonary surfactant, M. catarrhalis; type: cell-based, Moraxella catarrhalis; details: for MICRZ, Resazurin: +BPS: 2.5% v/v BPS
Protocol: as §1, §2, §3, §4, §5

S. aureus = details: worldwide surveillance studies; cited from earlier work
[1] = test system: nosocomial pneumonia suspected or confirmed to be caused by Gram-positive pathogens; details: cited from earlier work; for cure rate: intent-to-treat, test of cure visit

COc1cc(Cc2cnc(N)nc2N)c2c(c1OC)OC(C1CC1)C=C2 (racemic) [Iclaprim]
MICRZ, Resazurin: +BPS (H. influenzae; H. influenzae ATCC 49247, 2.5% v/v BPS): 0.25 µg/mL | MICRZ, Resazurin (H. influenzae; H. influenzae ATCC 49247, no BPS): 0.25 µg/mL | MICRZ, Resazurin: +BPS (H. influenzae; H. influenzae Clinical Isolate 824704, 2.5% v/v BPS): 0.06 µg/mL | MICRZ, Resazurin (H. influenzae; H. influenzae Clinical Isolate 824704, no BPS): 0.06 µg/mL | MIC (H. influenzae; ATCC49247, H. influenzae ATCC 49247, 2.5% v/v BPS, read-out: MIC, CLSI: +BPS): 0.12 µg/mL (≈ 0.339 µM) | MIC (H. influenzae; ATCC49247, H. influenzae ATCC 49247, no BPS, read-out: MIC, CLSI): 0.12 µg/mL (≈ 0.339 µM) | MIC (H. influenzae; H. influenzae Clinical Isolate 824704, 2.5% v/v BPS, read-out: MIC, CLSI: +BPS): 0.06 µg/mL (≈ 0.169 µM) | MIC (H. influenzae; H. influenzae Clinical Isolate 824704, no BPS, read-out: MIC, CLSI): 0.06 µg/mL (≈ 0.169 µM) | MICRZ, Resazurin: +BPS (K. pneumoniae; K. pneumoniae ATCC 700603, 2.5% v/v BPS): 4 µg/mL | MICRZ, Resazurin (K. pneumoniae; K. pneumoniae ATCC 700603, no BPS): 4 µg/mL | MICRZ, Resazurin: +BPS (K. pneumoniae; K. pneumoniae Clinical Isolate 858055, 2.5% v/v BPS): 2 µg/mL | MICRZ, Resazurin (K. pneumoniae; K. pneumoniae Clinical Isolate 858055, no BPS): 2 µg/mL | MIC (K. pneumoniae; ATCC700603, K. pneumoniae ATCC 700603, 2.5% v/v BPS, read-out: MIC, CLSI: +BPS): 4 µg/mL (≈ 11.3 µM) | MIC (K. pneumoniae; ATCC700603, K. pneumoniae ATCC 700603, no BPS, read-out: MIC, CLSI): 4 µg/mL (≈ 11.3 µM) | MIC (K. pneumoniae; K. pneumoniae Clinical Isolate 858055, 2.5% v/v BPS, read-out: MIC, CLSI: +BPS): 2 µg/mL (≈ 5.64 µM) | MIC (K. pneumoniae; K. pneumoniae Clinical Isolate 858055, no BPS, read-out: MIC, CLSI): 2 µg/mL (≈ 5.64 µM) | MICRZ, Resazurin: +BPS (M. catarrhalis; M. catarrhalis Clinical Isolate 893806): 8 µg/mL | MICRZ, Resazurin (M. catarrhalis; M. catarrhalis Clinical Isolate 893806, no BPS): 4 µg/mL | MICRZ, Resazurin: +BPS (M. catarrhalis; M. catarrhalis Clinical Isolate 893807): 4 µg/mL | MICRZ, Resazurin (M. catarrhalis; M. catarrhalis Clinical Isolate 893807, no BPS): 4 µg/mL | MIC (M. catarrhalis; Moraxella catarrhalis, M. catarrhalis Clinical Isolate 893806, no BPS): 4 µg/mL (≈ 11.3 µM) | MIC90 of S. aureus (S. aureus): 0.12 µg/mL | death rate within 28 days of the start of treatment ([1]; iclaprim q12h): 8.7% | cure rate ([1]; iclaprim 0.8 mg/kg IV q12h): 73.9% | cure rate ([1]; iclaprim 1.6 mg/kg IV q8h): 62.5%
